Assays:
Experiment in all cases: membrane-coated bead recruitment, confocal fluorescence, single-site fit
Assay type in all cases: binding
Settings in all cases: apparent affinity in protein concentration; 5 mol% PI(4,5)P2, 85% POPC, 10% phosphatidylserine on silica beads; room temperature, 30 min; 20 mM HEPES, 150 mM NaCl; read-out: KD,relative
[1] = biological target: T1, exocyst subcomplex-1 (Exoc1:2:3:4) (Homo sapiens, UniProt Q9NV70)
T1 construct: Sf9 baculovirus; heterotetramer; 6xHis-mNeonGreen-Exoc4 (tag kept), 6xHis-MBP on Exoc1 cut with HRV3C, Exoc2 and Exoc3 untagged; PH domain of Exoc1 is the known PI(4,5)P2 site; with Exocyst complex component 2; Exocyst complex component 3; Exocyst complex component 4

exocyst holocomplex = biological target: T2, exocyst holocomplex (Homo sapiens, UniProt Q9NV70+Q9UPT5)
T2 construct: gene EXOC1; Sf9 baculovirus; hetero-octamer; 6xHis-mNeonGreen-Exoc6 (tag kept), 6xHis-MBP on Exoc5 cut with HRV3C, other subunits untagged; with Exocyst complex component 2; Exocyst complex component 3; Exocyst complex component 4; Exocyst complex component 5; Exocyst complex component 6; Exocyst complex component 8

[2] = biological target: T3, exocyst subcomplex-2 (Exoc5:6:7:8) (Homo sapiens, UniProt Q9UPT5)
T3 construct: gene EXOC7; Sf9 baculovirus; heterotetramer; with Exocyst complex component 5; Exocyst complex component 6; Exocyst complex component 8

T1 sequence (Q9NV70 whole entry, the tested form may be a part): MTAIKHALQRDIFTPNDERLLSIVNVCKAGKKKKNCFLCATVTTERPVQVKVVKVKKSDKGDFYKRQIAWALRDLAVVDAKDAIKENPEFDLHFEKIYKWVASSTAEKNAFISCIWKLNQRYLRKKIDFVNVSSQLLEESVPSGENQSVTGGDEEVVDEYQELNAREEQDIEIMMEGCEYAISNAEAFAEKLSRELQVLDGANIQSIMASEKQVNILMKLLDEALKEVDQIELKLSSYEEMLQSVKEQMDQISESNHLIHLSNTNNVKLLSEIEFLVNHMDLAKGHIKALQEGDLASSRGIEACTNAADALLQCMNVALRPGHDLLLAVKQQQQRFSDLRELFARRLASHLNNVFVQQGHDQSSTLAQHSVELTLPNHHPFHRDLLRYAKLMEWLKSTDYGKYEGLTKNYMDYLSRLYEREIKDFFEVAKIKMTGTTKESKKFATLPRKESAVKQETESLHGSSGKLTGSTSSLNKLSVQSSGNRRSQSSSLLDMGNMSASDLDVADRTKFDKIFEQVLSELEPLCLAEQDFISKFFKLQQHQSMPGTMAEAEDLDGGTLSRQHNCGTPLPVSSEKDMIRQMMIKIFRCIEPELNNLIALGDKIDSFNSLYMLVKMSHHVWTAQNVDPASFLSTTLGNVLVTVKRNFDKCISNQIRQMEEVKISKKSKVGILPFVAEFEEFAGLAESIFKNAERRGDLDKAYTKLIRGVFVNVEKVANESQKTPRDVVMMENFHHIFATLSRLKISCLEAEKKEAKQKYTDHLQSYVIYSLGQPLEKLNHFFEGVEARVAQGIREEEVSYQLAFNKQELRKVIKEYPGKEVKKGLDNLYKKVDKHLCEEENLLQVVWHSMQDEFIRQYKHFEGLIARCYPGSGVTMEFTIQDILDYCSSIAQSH
T1 sequence (Q96KP1 whole entry partner, the tested form may be a part): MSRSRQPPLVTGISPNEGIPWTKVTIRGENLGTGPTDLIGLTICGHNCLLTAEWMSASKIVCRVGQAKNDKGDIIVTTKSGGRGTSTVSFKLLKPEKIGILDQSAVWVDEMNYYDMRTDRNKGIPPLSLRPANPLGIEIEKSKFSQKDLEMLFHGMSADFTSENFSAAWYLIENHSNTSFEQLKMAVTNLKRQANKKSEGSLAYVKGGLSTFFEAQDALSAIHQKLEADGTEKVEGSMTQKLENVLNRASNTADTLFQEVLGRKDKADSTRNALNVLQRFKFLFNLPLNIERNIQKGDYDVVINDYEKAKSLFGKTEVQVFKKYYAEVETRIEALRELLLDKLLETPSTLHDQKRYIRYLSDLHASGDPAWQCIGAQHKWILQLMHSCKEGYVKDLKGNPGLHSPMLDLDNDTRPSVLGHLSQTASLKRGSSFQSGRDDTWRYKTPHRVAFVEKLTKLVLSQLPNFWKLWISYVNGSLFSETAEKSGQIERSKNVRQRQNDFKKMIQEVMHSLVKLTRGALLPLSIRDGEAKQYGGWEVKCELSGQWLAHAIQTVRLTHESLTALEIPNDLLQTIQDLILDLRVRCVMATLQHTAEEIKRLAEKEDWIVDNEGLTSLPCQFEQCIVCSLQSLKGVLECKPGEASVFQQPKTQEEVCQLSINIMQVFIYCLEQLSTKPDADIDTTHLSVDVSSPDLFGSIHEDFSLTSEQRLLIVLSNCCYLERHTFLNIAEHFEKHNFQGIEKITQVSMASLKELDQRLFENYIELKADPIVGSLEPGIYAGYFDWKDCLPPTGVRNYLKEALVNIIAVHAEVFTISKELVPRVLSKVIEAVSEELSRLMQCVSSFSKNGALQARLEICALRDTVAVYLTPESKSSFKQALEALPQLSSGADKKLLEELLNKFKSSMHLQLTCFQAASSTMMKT
T1 sequence (O60645 whole entry partner, the tested form may be a part): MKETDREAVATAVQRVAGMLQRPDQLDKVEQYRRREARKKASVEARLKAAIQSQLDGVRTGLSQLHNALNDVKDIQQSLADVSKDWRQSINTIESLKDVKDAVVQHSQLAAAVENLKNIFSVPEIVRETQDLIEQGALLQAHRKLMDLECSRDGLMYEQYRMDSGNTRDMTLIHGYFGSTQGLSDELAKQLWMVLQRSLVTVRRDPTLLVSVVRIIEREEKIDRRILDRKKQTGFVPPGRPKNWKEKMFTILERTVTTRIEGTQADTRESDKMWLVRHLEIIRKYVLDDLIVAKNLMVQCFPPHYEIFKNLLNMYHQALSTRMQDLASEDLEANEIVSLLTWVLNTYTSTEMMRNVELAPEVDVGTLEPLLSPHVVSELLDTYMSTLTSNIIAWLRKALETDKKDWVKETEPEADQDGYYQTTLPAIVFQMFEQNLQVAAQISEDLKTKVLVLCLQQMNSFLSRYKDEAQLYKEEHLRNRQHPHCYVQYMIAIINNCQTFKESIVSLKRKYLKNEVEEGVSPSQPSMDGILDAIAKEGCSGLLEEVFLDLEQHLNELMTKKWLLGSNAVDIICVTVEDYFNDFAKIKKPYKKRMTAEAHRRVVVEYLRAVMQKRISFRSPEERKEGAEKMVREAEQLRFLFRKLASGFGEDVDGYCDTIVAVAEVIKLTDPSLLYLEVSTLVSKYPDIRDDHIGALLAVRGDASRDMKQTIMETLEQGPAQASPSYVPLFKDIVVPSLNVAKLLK
T1 sequence (Q96A65 2-974 partner): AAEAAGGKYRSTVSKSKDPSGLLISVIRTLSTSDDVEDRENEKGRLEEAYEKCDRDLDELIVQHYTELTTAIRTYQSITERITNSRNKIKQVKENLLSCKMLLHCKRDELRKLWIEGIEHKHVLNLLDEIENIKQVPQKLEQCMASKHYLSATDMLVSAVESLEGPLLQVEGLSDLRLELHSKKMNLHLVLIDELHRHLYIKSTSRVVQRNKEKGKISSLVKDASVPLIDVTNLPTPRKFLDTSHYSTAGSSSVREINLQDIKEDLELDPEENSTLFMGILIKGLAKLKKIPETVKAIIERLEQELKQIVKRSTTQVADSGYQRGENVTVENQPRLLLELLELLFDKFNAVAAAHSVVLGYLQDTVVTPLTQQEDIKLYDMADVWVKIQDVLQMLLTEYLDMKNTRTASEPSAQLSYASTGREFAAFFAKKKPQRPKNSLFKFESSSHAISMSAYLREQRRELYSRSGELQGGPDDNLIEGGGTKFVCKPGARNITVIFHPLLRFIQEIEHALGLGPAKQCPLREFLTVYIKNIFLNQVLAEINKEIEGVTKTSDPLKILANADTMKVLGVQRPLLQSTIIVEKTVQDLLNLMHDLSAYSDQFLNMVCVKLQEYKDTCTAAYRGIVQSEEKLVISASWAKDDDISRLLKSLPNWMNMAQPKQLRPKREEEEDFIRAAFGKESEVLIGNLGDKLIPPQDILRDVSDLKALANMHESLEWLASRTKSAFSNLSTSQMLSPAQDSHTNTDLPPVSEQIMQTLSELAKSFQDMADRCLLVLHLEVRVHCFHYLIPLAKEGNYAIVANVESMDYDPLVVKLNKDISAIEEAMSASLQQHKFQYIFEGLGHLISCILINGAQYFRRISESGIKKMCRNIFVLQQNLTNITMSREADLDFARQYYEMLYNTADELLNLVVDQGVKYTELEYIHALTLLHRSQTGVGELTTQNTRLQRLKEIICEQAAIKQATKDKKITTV

Work on CCCCCCCCCCCCCCCC(=O)OC[C@H](COP(=O)(O)O[C@@H]1[C@H](O)[C@H](O)[C@@H](OP(=O)(O)O)[C@H](OP(=O)(O)O)[C@H]1O)OC(=O)CCCCCCCCCCCCCCC [PI(4,5)P2] yielded a Kd [1] of 36.1 nM, a Kd (exocyst holocomplex) of 99.4 nM and a Kd [2] of 38.5 nM.

From paper PMC9382030, “A mechanism for exocyst-mediated tethering via Arf6 and PIP5K1C-driven phosphoinositide conversion” (Current biology : CB, 2022)
